Measurements reported in patent EP1059033A1, “INDUSTRIAL ANTIBACTERIAL/ANTIFUNGAL AGENTS, ALGICIDES AND ANTI-BIOLOGICAL ADHESION AGENTS CONTAINING BENZYLAMINES” (Nissan Chemical Industries, Ltd., priority 1998, dated 1999).
Converted amounts (≈) assume the structure as drawn. Where two headings read alike, the source gives them in different places.

Key:
[1] = tested on: freshwater green alga (Selenastrum capricornutum); test: Inhibition of propagation of freshwater green alga (Example 4); type: cell-based; details: after 72 hours, cell number vs non-treated lot; for inhibition at 0.5 ppm: 500ppb, read-out: Propagation inhibiting rate(%) 500ppb
Protocol: A predetermined amount of each of the compounds of the invention was dissolved in a culture medium containing 10^5 /ml of a freshwater green alga (Selenastrum capricornutum) at a logarithmic growth phase to prepare samples having a concentration of the compound of the invention in the medium of 500 ppb and 50ppb respectively. The samples were stationary cultured at 23±1 °C for […] under continuous illumination.
After 72 hours, the number of cells was measured using a hemacytometer to obtain propagation rate. The propagation inhibiting rate was calculated from comparison with the non-treated lot.

[2] = tested on: Trichophyton mentagrophytes; test: Agar dilution MIC (Example 2); type: cell-based; details: 168 h, agar plate, 27 °C, 7 days
Protocol: Series of diluted samples (20000, 10000, 5000, 2500, 2000, 1250, 625, 313, 156, 78, 39, 20, 10, 5, 2.5, 1.25 mg/l) of the compounds of the invention were prepared using dimethylsulfoxide. A sensitive culture medium-N (Nissui Seiyaku Co.) was used for bacteria and a potato dextrose agar culture medium (Nissui Seiyaku Co.) was used for fungi. 0.5 ml of each sample was added to and mixed with 9.5 ml of the culture medium, poured into a Petri dish and solidified to obtain a plate. As a result, the concentration of the compounds of the invention in the agar culture medium were 1000, 500, 250, 125, 100, 62.5, 31.3, 15.6, 7.8, 3.9, 2.0, 1.0, 0.5, 0.25, 0.125, 0.062 mg/l. The bacterium inoculated were cultured in a bouillon for the assay of sensitivity (Nissui Seiyaku Co.) at 37 °C for 20 hours, and the fungi were cultured in the potato dextrose agar culture medium (Nissui Seiyaku Co.) for 10 days and then a 10^6 CFU/ml suspension was prepared from each of them. A test bacteria or fungi suspension was streaked on an agar plate containing the compound of the present invention with platinum wire loop, and the agar plate was cultured at 37±1 °C for 18 to 20 hours for bacteria or at 27 °C for 7 days for fungi. A concentration at which no growth was seen was taken as minimum inhibitory concentration [MIC(mg/l)]. Symbols in the table mean the followings; • A: Bacillus subtilis, • B: Trichophyton mentagrophytes, • C: Rhodotorula mucilaginosa.

[3] = tested on: Trichophyton mentagrophytes; type: cell-based; details: 72 h, 100 ppm
Protocol: 31.3 ml of Trichophyton mentagrophytes to be tested was added to 125 ml of a potato dextrose agar culture medium (Nissui Seiyaku Co.). The medium was stirred not to foam the solutions, poured into plates uniformly and solidified.
Thereafter, predetermined amounts of the compounds of the invention were weighted and diluted with acetone to predetermined concentrations.
Paper disks were impregnated with samples containing predetermined amounts of the compounds of the invention, laid on a filter, dried with air and placed on a plate containing test microbe at equal intervals.
Trichophyton mentagrophytes was cultured at 28 °C for 3 days in a thermostatic chamber and the diameter of each inhibiting zone was measured to evaluate the activity of each compound. Symbols in the table mean the followings; • A: Trichophyton mentagrophytes, • ++: strongly inhibiting zone (equal to or more than 21 mm) is observed, • +: inhibiting zone (10 to 20 mm) is observed, • -: no inhibiting zone is observed.

Aspergillus niger = test: Agar dilution MIC (Example 3); type: cell-based; details: 168 h, agar plate, 27 °C, 7 days
Protocol: (§1) Series of diluted samples (20000, 10000, 5000, 2500, 1250, 625, 313, 156, 78, 39 mg/l) of the compounds of the invention were prepared using dimethylsulfoxide. A sensitive culture medium-N (Nissui Seiyaku Co.) was used for bacteria and a potato dextrose agar culture medium (Nissui Seiyaku Co.) was used for fungi. 0.5 ml of each sample was added to and mixed with 9.5 ml of the culture medium, poured into a Petri dish and solidified to obtain a plate. As a result, the concentration of the compounds of the invention in the agar culture medium were 1000, 500, 250, 125, 62.5, 31.3, 15.6, 7.8, 3.9, 2.0 mg/l. The bacterium inoculated were cultured in a bouillon for the assay of sensitivity (Nissui Seiyaku Co.) at 37 °C for 20 hours, and the fungi were cultured in the potato dextrose agar culture medium (Nissui Seiyaku Co.) for 10 days and then a 10^6 CFU/ml suspension was prepared from each of them. A test bacteria or fungi suspension was streaked on an agar plate containing the compound of the present invention with platinum wire loop, and the agar plate was cultured at 37±1 °C for 18 to 20 hours for bacteria or at 27 °C for 7 days for fungi. A concentration at which no growth was seen was taken as minimum inhibitory concentration (MIC). Symbols in the tables mean the followings; • A: Bacillus subtilis, • B: Trichophyton mentagrophytes, • C: Staphylococcus aureus, • D: Aspergillus niger, • E: Penicillium funiculosum, • F: Candida albicans, • G: Micrococcus luteus, • H: Corynebacterium aquaticum, • I: Chaetomium globosum, • J: Fusarium moniliforme, • K: Saccharomyces cerevisiae, • L: Rhodotorula rubra, • M: Cladosporium cladosporioides, • N: Alternaria alternata.

[4] = tested on: Corynebacterium aquaticum; test: Agar dilution MIC (Example 3); type: cell-based; details: Leifsonia aquatica, agar plate, 37±1 °C, 18 to 20 hours
Protocol: as §1

[5] = tested on: Trichophyton mentagrophytes; test: Agar dilution MIC (Example 3); type: cell-based; details: 168 h, agar plate, 27 °C, 7 days
Protocol: as §1

Alternaria alternata = test: Agar dilution MIC (Example 3); type: cell-based; details: 168 h, agar plate, 27 °C, 7 days
Protocol: as §1

Rhodotorula rubra = test: Agar dilution MIC (Example 3); type: cell-based; details: 168 h, agar plate, 27 °C, 7 days
Protocol: as §1

Fusarium moniliforme = test: Agar dilution MIC (Example 3); type: cell-based; details: Fusarium verticillioides, 168 h, agar plate, 27 °C, 7 days
Protocol: as §1

Chaetomium globosum = test: Agar dilution MIC (Example 3); type: cell-based; details: 168 h, agar plate, 27 °C, 7 days
Protocol: as §1

Candida albicans = test: Agar dilution MIC (Example 3); type: cell-based; details: 168 h, agar plate, 27 °C, 7 days
Protocol: as §1

Saccharomyces cerevisiae = test: Agar dilution MIC (Example 3); type: cell-based; details: 168 h, agar plate, 27 °C, 7 days
Protocol: as §1

Penicillium funiculosum = test: Agar dilution MIC (Example 3); type: cell-based; details: Talaromyces funiculosus, 168 h, agar plate, 27 °C, 7 days
Protocol: as §1

[6] = tested on: Cladosporium cladosporioides; test: Agar dilution MIC (Example 3); type: cell-based; details: 168 h, agar plate, 27 °C, 7 days
Protocol: as §1

[7] = tested on: seawater diatom [Nitzschia closterium]; test: Inhibition of propagation of seawater diatom (Example 5); type: cell-based; details: Cylindrotheca closterium, 72 h, read-out: Propagation inhibiting rate(%) 500ppb
Protocol: A predetermined amount of each of the compounds of the invention was dissolved in culture media containing 10^5 /ml of a seawater diatom [Nitzschia closterium] at a logarithmic growth phase to prepare samples having a concentration of the compound in the medium of 500 ppb. The samples were stationary cultured at 22±1 °C for […] under continuous illumination.
After 72 hours, cells were collected by centrifugation and disrupted by addition of methanol to extract chlorophyll, and the amount of chlorophyll was measured from absorbance using a spectrophotometer to obtain propagation rate. The propagation inhibiting rate was calculated from comparison with the non-treated lot.

[8] = tested on: freshwater green alga (Chlorella pyrenoidosa); test: Inhibition of propagation of freshwater algae (Example 6); type: cell-based; details: Auxenochlorella pyrenoidosa, 500ppb, 168hr, read-out: Propagation inhibiting rate(%) 500ppb 168hr
Protocol: (§2) A predetermined amount each of the compounds of the invention was dissolved in a culture medium containing 10^5 /ml of a freshwater alga at a logarithmic growth phase to prepare samples having a concentration of the compound of the invention in the medium of 500 ppb and 50 ppb respectively. A shaking culture at 100 rpm was performed for […] under continuous illumination at 20±2 °C for freshwater diatom and at 23±2 °C for other algae.
(§3) After 72 hours and 168 hours, the […] of cells was measured using a hemacytometer to obtain propagation rate. The propagation inhibiting rate was calculated from comparison with the non-treated lot. Symbols in the tables mean the followings; • A: freshwater green alga (Chlorella pyrenoidosa), • B: freshwater blue-green alga (Microcystis aeruginosa), • C: freshwater diatom (Diatoma elongatum), • D: freshwater green alga (Scenedesmus pannonicus).

[9] = tested on: freshwater blue-green alga (Microcystis aeruginosa); test: as above; type: cell-based; details: 500ppb
Protocol: as §2, §3

[10] = tested on: freshwater green alga (Scenedesmus pannonicus); test: as above; type: cell-based; details: Desmodesmus pannonicus, 500ppb
Protocol: as §2, §3

blue mussel = test: Antifouling (adhesion repellent) activity against blue mussel (Example 7); type: in vivo, Mytilus edulis; design: key: ++: not adhered in the zone and strong repellent effect is observed; +: adhesion in zone is observed but most of them adhered out of zone and repellent effect is observed; -: adhered in and out of zone alike and repellent effect is not observed; details: Amount of chemical 2.0 mg on 4 cm-diameter zone; seawater, dark, 3 hours
Protocol: The compound of the invention was completely dissolved in 1 ml of acetone and the resulting solution was uniformly applied to a 4 cm-diameter zone drawn on a test plate. A zone coated with acetone alone as blank and zones coated with 1.0 mg and 0.5 mg of copper sulfate as a comparison chemical were also prepared. After drying, four blue mussel having a shell length of about 2 to 2.5 cm were adhered around each zone using a rubber piece as a spacer. The thus prepared test plate was immersed in a water tank to which seawater ran and left to stand in the dark for 3 hours.
The adhesion controlling effect (adhesion repellent activity) was obtained from comparison with copper sulfate used as a comparison chemical.
The evaluation of adhesion repellent activity was based on "Evaluation method of adhesion repellent substance to marine adhesion organisms using Mytilus edulis" written by Kazuo Ina and Hideo Etoh (Chemistry and Biology, vol.28 (No.2), pp.132-138, 1990).
Symbols in the table mean the followings; • ++: not adhered in the zone and strong repellent effect is observed, • +: adhesion in zone is observed but most of them adhered out of zone and repellent effect is observed, • -: adhered in and out of zone alike and repellent effect is not observed.

[11] = 72hr, read-out: Propagation inhibiting rate (%) 500ppb 72hr
[12] = 168hr, read-out: Propagation inhibiting rate (%) 500ppb 168hr

Row | MIC [2] [µg/mL] | MIC (Aspergillus niger) [µg/mL] | MIC [4] [µg/mL] | MIC [5] [µg/mL] | MIC (Rhodotorula rubra) [µg/mL] | MIC (Chaetomium globosum) [µg/mL] | MIC (Saccharomyces cerevisiae) [µg/mL] | MIC (Penicillium funiculosum) [µg/mL] | MIC [6] [µg/mL] | Structure (SMILES) | inhibition at 0.5 ppm [1] [%] | Judgment (Target bacteria: A) [3] | MIC (Alternaria alternata) [µg/mL] | MIC (Fusarium moniliforme) [µg/mL] | inhibition at 0.5 ppm [7] [%] | inhibition at 0.5 ppm [8] [%] | inhibition at 0.5 ppm [10, 11] [%] | inhibition at 0.5 ppm [10, 12] [%] | other results
1 | < 2 | 15.6 (≈ 52.8 µM) | 31.3 (≈ 106 µM) | < 2 | 63 (≈ 213 µM) | 31.3 (≈ 106 µM) | 63 (≈ 213 µM) | 15.6 (≈ 52.8 µM) | 31.3 (≈ 106 µM) | Cc1cccc(CN(C)Cc2ccc(C(C)(C)C)cc2)c1C [Compound 4] | 95 | ++ (strongly inhibiting zone (equal to or more than 21 mm) is observed) | 31.3 (≈ 106 µM) | 31.3 (≈ 106 µM) | 70 | – | – | – | inhibition at 0.05 ppm ([1]; 50ppb, read-out: Propagation inhibiting rate(%) 50ppb): 64%; MIC (Candida albicans): 62.5 µg/mL (≈ 212 µM)
2 | 1 (≈ 3.41 µM) | – | – | < 2 | – | – | – | – | – | CN(Cc1ccc(C(C)(C)C)cc1)C1CCc2ccccc21 (stereo not shown) [Compound 7] | 62 | ++ (strongly inhibiting zone (equal to or more than 21 mm) is observed) | – | – | 91 | – | 92 | 99 | Judgment (adhesion repellent activity against blue mussel) (blue mussel): ++
3 | – | 7.8 (≈ 26.4 µM) | 31.3 (≈ 106 µM) | – | 125 (≈ 423 µM) | 63 (≈ 213 µM) | 125 (≈ 423 µM) | 31.3 (≈ 106 µM) | 63 (≈ 213 µM) | Cc1ccc(C)c(CN(C)Cc2ccc(C(C)(C)C)cc2)c1 [Compound 8] | 90 | ++ (strongly inhibiting zone (equal to or more than 21 mm) is observed) | – | – | – | 86 | 72 | 86 | –

Row | Structure (SMILES) | MIC [2] [µg/mL] | MIC (Aspergillus niger) [µg/mL] | MIC [4] [µg/mL] | MIC [5] [µg/mL] | MIC (Rhodotorula rubra) [µg/mL] | MIC (Chaetomium globosum) [µg/mL] | MIC (Saccharomyces cerevisiae) [µg/mL] | MIC (Penicillium funiculosum) [µg/mL] | MIC [6] [µg/mL] | inhibition at 0.5 ppm [1] [%] | Judgment (Target bacteria: A) [3] | MIC (Alternaria alternata) [µg/mL] | MIC (Fusarium moniliforme) [µg/mL] | inhibition at 0.5 ppm [7] [%] | inhibition at 0.5 ppm [8] [%] | inhibition at 0.5 ppm [10, 11] [%] | inhibition at 0.5 ppm [10, 12] [%] | other results
4 | Cc1cccc(C)c1CN(C)Cc1ccc(C(C)(C)C)cc1 [Compound 5] | – | < 2 | 7.8 (≈ 26.4 µM) | – | 63 (≈ 213 µM) | 15.6 (≈ 52.8 µM) | 63 (≈ 213 µM) | 15.6 (≈ 52.8 µM) | 31.3 (≈ 106 µM) | 75 | ++ (strongly inhibiting zone (equal to or more than 21 mm) is observed) | 125 (≈ 423 µM) | 7.8 (≈ 26.4 µM) | – | 62 | 76 | 78 | inhibition at 0.5 ppm ([9]; 72hr, read-out: Propagation inhibiting rate(%) 500ppb 72hr): 56%; inhibition at 0.5 ppm ([9]; 168hr, read-out: Propagation inhibiting rate(%) 500ppb 168hr): 62%
